Source: ChEMBL document CHEMBL1147701, “Novel 4-anilinoquinazolines with C-6 carbon-linked side chains: synthesis and structure-activity relationship of a series of potent, orally active, EGF receptor tyrosine kinase inhibitors” (Bioorg Med Chem Lett, 2006)
≈ marks a conversion by molar mass, not a printed value.

Key:
[1] = target: T1, Serine/threonine-protein kinase Sgk1 (Homo sapiens, UniProt O00141); assay: Inhibition of SGK
T1 sequence (O00141 whole entry): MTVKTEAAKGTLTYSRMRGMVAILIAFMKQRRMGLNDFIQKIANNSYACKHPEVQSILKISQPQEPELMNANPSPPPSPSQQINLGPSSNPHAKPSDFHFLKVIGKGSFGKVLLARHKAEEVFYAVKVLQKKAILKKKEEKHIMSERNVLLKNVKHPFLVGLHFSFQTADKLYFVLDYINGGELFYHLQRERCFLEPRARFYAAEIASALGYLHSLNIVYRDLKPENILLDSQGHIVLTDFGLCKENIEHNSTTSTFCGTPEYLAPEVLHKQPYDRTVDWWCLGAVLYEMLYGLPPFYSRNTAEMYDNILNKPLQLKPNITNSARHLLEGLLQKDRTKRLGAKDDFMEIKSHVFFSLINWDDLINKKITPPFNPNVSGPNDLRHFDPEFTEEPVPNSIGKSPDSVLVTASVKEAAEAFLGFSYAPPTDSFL

[2] = target: Mitogen-activated protein kinase 1 (Homo sapiens, UniProt P28482); assay: Inhibition of MAPK
[3] = target: c-Jun N-terminal kinase, JNK (Homo sapiens, UniProt P45983+P53779+P45984); assay: Inhibition of JNK; assay type: protein assay
[4] = target: cAMP-dependent protein kinase (PKA) (Homo sapiens, UniProt P22694+P17612+P22612); assay: Inhibition of PKA; assay type: protein assay
[5] = Inhibition of CDK
[6] = target: Proto-oncogene tyrosine-protein kinase Src (Homo sapiens, UniProt P12931); assay: Inhibition of Src
[7] = target: Glycogen synthase kinase-3 beta (Homo sapiens, UniProt P49841); assay: Inhibition of GSK3-beta
[8] = target: AMP-activated protein kinase, AMPK; assay: Inhibition of AMPK; assay type: protein-complex assay
[9] = target: T2, Serine/threonine-protein kinase Chk1 (Homo sapiens, UniProt O14757); assay: Inhibition of CHK1
T2 sequence (O14757 whole entry): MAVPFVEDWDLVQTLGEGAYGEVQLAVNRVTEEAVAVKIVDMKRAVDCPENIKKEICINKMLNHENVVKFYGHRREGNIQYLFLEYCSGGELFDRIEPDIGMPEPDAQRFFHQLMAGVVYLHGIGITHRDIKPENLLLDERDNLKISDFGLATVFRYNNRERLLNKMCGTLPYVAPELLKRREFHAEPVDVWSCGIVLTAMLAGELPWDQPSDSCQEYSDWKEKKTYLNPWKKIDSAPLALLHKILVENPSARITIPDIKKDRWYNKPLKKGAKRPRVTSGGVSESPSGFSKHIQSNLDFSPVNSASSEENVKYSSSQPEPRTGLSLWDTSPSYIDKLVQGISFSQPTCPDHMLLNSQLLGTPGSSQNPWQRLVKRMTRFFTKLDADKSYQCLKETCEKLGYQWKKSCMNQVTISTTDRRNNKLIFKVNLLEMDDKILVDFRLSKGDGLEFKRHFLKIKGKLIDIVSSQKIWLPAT

[10] = target: Rho-associated protein kinase 2 (Homo sapiens, UniProt O75116); assay: Inhibition of ROCK2
[11] = target: Vascular endothelial growth factor receptor 2 (Homo sapiens, UniProt P35968)
[12] = target: Tyrosine-protein kinase Lck (Homo sapiens, UniProt P06239)
MAP kinase p38 = MAP kinase p38 (Homo sapiens, UniProt O15264+Q15759+Q16539+P53778)
[13] = Solubility in phosphate buffer at pH 7.4; assay type: physicochemical
[14] = Dissociation constant, pKa of the compound; assay type: physicochemical
[15] = Clearance in rat; assay type: ADME, organism-based; conditions: in vivo
[16] = Volume of distribution in rat; assay type: ADME, organism-based; conditions: in vivo, read-out: Vdss
[17] = Bioavailability in rat; assay type: ADME, organism-based; conditions: in vivo

Chain of Tyrosine-protein kinase Lck (P06239 whole entry): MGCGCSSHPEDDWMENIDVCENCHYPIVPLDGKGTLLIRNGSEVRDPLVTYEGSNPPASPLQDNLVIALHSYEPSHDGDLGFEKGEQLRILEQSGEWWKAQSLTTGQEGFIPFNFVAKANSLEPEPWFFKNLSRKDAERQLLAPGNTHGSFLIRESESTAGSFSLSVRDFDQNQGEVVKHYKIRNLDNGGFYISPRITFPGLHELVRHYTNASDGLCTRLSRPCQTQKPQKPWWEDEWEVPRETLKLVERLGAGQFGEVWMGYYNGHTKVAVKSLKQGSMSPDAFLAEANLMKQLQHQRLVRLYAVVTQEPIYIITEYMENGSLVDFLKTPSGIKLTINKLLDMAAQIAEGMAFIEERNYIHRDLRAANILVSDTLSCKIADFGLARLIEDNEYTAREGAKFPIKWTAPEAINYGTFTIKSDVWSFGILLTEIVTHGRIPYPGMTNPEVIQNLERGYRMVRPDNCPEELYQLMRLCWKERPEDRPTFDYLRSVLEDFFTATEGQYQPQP
Chain of Mitogen-activated protein kinase 1 (P28482 whole entry): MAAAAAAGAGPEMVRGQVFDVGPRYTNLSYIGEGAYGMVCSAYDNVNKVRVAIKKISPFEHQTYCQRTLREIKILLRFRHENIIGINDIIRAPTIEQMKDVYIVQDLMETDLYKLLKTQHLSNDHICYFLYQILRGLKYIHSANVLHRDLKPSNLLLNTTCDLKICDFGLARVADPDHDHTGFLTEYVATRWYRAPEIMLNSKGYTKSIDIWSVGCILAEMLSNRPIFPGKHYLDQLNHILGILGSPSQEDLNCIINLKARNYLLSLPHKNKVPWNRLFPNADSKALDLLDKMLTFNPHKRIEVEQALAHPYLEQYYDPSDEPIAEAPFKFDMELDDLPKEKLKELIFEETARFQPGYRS
Chain of Vascular endothelial growth factor receptor 2 (P35968 whole entry): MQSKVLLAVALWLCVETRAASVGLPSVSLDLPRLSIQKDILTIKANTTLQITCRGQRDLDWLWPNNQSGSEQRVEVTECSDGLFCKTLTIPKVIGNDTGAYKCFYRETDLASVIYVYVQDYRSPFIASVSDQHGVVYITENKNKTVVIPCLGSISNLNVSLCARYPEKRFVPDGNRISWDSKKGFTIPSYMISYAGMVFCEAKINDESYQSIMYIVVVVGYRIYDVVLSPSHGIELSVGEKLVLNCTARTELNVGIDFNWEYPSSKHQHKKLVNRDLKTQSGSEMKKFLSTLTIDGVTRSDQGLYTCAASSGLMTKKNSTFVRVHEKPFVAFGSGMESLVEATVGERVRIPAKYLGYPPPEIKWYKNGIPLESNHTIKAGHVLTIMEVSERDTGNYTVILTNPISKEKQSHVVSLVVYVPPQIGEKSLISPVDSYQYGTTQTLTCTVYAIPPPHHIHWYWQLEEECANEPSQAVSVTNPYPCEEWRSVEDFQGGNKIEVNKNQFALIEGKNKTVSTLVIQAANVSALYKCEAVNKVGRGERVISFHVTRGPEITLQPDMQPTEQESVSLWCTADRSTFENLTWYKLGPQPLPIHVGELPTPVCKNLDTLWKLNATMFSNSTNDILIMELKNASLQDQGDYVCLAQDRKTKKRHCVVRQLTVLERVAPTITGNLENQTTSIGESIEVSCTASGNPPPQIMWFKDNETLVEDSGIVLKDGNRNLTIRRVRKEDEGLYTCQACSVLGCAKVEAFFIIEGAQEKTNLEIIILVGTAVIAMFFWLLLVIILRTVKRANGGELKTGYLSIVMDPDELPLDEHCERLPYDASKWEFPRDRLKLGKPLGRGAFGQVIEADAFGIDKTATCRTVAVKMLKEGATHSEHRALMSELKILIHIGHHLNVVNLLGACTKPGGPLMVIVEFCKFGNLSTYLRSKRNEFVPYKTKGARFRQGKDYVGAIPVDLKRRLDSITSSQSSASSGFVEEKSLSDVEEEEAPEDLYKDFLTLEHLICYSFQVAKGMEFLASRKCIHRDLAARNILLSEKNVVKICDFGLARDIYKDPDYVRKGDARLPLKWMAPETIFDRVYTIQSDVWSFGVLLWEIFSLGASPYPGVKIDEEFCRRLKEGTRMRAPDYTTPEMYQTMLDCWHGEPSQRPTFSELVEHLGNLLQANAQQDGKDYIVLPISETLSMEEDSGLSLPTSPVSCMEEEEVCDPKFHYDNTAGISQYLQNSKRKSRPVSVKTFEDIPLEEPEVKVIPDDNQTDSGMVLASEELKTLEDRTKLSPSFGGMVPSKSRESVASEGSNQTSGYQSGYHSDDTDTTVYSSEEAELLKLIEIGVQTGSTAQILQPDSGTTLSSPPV
Chain of Rho-associated protein kinase 2 (O75116 whole entry): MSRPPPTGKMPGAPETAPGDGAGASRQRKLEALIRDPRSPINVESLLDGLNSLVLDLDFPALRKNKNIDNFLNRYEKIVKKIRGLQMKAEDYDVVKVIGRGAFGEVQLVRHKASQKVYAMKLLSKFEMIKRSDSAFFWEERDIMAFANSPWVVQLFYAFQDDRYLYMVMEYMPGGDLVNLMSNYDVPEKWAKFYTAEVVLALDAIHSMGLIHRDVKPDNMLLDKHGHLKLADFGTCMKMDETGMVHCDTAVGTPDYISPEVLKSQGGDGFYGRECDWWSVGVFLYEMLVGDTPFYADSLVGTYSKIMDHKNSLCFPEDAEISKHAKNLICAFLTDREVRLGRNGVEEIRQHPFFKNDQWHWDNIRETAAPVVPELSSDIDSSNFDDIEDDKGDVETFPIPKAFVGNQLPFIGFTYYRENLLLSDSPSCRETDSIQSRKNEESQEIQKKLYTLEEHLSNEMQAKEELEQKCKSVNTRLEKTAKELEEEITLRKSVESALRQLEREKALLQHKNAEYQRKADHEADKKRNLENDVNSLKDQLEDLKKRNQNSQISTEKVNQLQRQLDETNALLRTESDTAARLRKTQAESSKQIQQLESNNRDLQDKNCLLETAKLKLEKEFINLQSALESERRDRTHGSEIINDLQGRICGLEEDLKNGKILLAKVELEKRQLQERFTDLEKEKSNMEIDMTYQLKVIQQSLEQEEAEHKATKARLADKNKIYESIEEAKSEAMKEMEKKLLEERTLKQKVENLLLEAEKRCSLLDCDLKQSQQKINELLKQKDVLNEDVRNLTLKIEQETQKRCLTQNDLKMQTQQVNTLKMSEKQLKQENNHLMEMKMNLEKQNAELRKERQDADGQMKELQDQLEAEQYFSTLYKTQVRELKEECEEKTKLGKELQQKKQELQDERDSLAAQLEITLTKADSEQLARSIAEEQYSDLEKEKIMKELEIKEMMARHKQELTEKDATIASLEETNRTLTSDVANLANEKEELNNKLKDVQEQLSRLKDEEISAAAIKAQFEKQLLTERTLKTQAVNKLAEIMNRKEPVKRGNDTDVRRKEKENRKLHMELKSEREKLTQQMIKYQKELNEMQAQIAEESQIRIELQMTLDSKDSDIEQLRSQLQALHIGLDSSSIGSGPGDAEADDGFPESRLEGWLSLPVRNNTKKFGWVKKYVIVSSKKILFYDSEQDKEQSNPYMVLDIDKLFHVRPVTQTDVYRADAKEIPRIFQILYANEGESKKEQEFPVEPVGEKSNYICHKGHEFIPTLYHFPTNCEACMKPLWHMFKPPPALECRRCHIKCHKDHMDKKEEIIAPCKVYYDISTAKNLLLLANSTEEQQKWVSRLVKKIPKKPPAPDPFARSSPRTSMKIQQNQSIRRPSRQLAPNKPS
Chain of Proto-oncogene tyrosine-protein kinase Src (P12931 2-536 limits assumed): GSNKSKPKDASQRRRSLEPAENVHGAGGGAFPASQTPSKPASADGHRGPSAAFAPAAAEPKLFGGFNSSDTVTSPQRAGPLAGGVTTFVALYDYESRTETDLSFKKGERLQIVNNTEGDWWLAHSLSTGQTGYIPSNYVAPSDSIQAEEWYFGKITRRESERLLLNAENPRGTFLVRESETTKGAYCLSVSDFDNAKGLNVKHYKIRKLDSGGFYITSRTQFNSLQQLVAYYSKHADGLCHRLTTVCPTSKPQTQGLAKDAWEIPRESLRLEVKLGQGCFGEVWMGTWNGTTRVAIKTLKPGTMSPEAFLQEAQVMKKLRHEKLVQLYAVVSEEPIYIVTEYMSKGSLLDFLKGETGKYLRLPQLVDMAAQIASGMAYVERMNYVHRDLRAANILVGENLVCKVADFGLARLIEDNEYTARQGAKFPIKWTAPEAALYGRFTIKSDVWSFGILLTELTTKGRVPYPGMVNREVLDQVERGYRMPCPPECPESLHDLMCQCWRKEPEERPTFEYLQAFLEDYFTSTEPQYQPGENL
Chain of Glycogen synthase kinase-3 beta (P49841 whole entry): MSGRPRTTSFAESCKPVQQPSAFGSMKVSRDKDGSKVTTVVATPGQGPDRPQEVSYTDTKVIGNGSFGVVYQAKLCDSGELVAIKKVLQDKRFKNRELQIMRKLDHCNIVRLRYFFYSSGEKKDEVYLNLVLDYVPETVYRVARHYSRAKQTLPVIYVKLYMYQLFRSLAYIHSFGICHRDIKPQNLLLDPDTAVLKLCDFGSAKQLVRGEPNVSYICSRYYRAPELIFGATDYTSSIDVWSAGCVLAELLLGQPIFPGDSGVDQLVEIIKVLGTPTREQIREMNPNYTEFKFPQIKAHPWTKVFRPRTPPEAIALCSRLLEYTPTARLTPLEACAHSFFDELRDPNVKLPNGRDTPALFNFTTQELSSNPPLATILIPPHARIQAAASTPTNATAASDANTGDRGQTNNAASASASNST

IC50 [1] [µM] | IC50 [2] [µM] | IC50 [3] [µM] | IC50 [4] [µM] | IC50 [5] [µM] | IC50 [6] [µM] | IC50 [7] [µM] | IC50 [8] [µM] | IC50 [9] [µM] | IC50 [10] [µM] | IC50 [11] [µM] | IC50 [12] [µM] | IC50 (MAP kinase p38) [µM] | solubility [13] [µM] | pKa [14] | clearance [15] [mL/min/kg] | Vd [16] [L/kg] | bioavailability [17] [%] | Structure (SMILES)
> 10 | > 10 | > 10 | > 10 | > 10 | > 10 | > 10 | > 10 | > 10 | > 10 | > 10 | > 10 | > 10 |  |  |  |  |  | COCC[C@@H](C(N)=O)N(C)Cc1cc2c(Nc3cccc(Cl)c3F)ncnc2cc1OC
> 10 | > 10 | > 10 | > 10 |  | > 10 | > 10 | > 10 | > 10 | > 10 | > 10 |  | > 10 |  |  |  |  |  | COc1cc2ncnc(Nc3cccc(Cl)c3F)c2cc1CN1CCN(C)CC1C(N)=O (stereo not given)
> 10 | > 10 | > 10 | > 10 | > 10 | > 10 | > 10 | > 10 | > 10 | > 10 | > 10 | > 10 |  |  |  |  |  |  | COc1cc2ncnc(Nc3cccc(Cl)c3F)c2cc1CN1CCC[C@@H]1C(N)=O
> 10 | > 10 | > 10 | > 10 | > 10 | > 10 | > 10 | > 10 | > 10 | > 10 | > 10 | > 10 | > 10 |  |  |  |  |  | COc1cc2ncnc(Nc3cccc(Cl)c3F)c2cc1CN1CCCC[C@@H]1C(N)=O
> 10 | > 10 | > 10 | > 10 | > 10 | > 10 | > 10 | > 10 | > 10 | > 10 | > 10 | > 10 | > 10 |  |  |  |  |  | COc1cc2ncnc(Nc3cccc(Cl)c3F)c2cc1CN1CCC[C@H]1CC(N)=O
> 10 | > 10 | > 10 | > 10 |  | > 10 | > 10 | > 10 | > 10 | > 10 | > 10 |  |  | 1 (≈ 0.446 µg/mL) |  |  |  |  | COc1cc2ncnc(Nc3cccc(Cl)c3F)c2cc1CN(C(C)C)[C@@H](C)C(N)=O
> 10 | > 10 | > 10 | > 10 | > 10 | > 10 | > 10 | > 10 | > 10 | > 10 | > 10 | > 10 | > 10 |  | 7.1 | 35 | 4.2 | < 50 | COCCN1CC(C(N)=O)(N(C)Cc2cc3c(Nc4cccc(Cl)c4F)ncnc3cc2OC)C1
> 10 | > 10 | > 10 | > 10 | > 10 | > 10 | > 10 | > 10 | > 10 | > 10 | > 10 |  | > 10 |  |  |  |  |  | COc1cc2ncnc(Nc3ccc(F)c(Cl)c3)c2cc1CN1CCC[C@H]1C(N)=O
> 10 | > 10 | > 10 | > 10 | > 10 | > 10 | > 10 | > 10 | > 10 | > 10 | > 10 | > 10 | > 10 |  | 8.3 | 55 | 7.5 | < 50 | COc1cc2ncnc(Nc3cccc(Cl)c3F)c2cc1CN(C)C1(C(N)=O)CCN(C)CC1
> 10 | > 10 | > 10 | > 10 |  | > 10 | > 10 | > 10 | > 10 | > 10 | > 10 | > 10 |  |  | 7.8 | 61 | 7.2 | < 50 | COc1cc2ncnc(Nc3cccc(Cl)c3F)c2cc1CN(C)C1(C(N)=O)CN(C(C)C)C1
> 10 | > 10 | > 10 | > 10 | > 10 | > 10 | > 10 | > 10 | > 10 | > 10 | > 10 | > 10 | > 10 |  |  |  |  |  | CNC(=O)[C@@H](C)N(C)Cc1cc2c(Nc3cccc(Cl)c3F)ncnc2cc1OC
> 10 | > 10 | > 10 | > 10 | > 10 | > 10 | > 10 | > 10 | > 10 | > 10 | > 10 |  | > 10 |  |  |  |  |  | COc1cc2ncnc(Nc3ccc(F)c(Cl)c3)c2cc1CN1CCC[C@@H]1C(N)=O
> 10 | > 10 | > 10 | > 10 | > 10 | > 10 | > 10 | > 10 | > 10 | > 10 | > 10 | > 10 | > 10 |  | 7.9 | 55 | 9.4 | < 50 | COc1cc2ncnc(Nc3cccc(Cl)c3F)c2cc1CN(C)C1(C(N)=O)CN(C)C1
> 10 | > 10 | > 10 | > 10 |  | > 10 | > 10 | > 10 | > 10 | > 10 | > 10 |  | > 10 |  |  |  |  |  | COc1cc2ncnc(Nc3cccc(Cl)c3F)c2cc1CN1CCC1C(N)=O (stereo not given)
> 10 | > 10 | > 10 | > 10 | > 10 | > 10 | > 10 | > 10 | > 10 | > 10 | > 10 | > 10 | > 10 |  |  |  |  |  | COc1cc2ncnc(Nc3cccc(Cl)c3F)c2cc1CN(C)[C@@H](CN(C)C)C(N)=O
> 10 | > 10 | > 10 |  |  | > 10 | > 10 | > 10 | > 10 | > 10 | > 10 |  |  |  | 9.1 | 114 | 4.9 | < 50 | COc1cc2ncnc(Nc3cccc(Cl)c3F)c2cc1CN(C)C1(C(N)=O)CCN(C(C)C)CC1
> 10 | > 10 | > 10 | > 10 |  | > 10 | > 10 | > 10 | > 10 | > 10 | > 10 |  | > 10 |  |  |  |  |  | CNC(=O)[C@H]1CCCN1Cc1cc2c(Nc3cccc(Cl)c3F)ncnc2cc1OC
> 10 | > 10 | > 10 | > 10 |  | > 10 | > 10 | > 10 | > 10 | > 10 | > 10 |  | > 10 |  |  |  |  |  | COc1cc2ncnc(Nc3cccc(Cl)c3F)c2cc1CN(C)C1CCNC1=O (stereo not given)
